Assay results as given in patent US7034208B1, “Ahas inhibiting herbicide resistant wheat and method for selection thereof” (BASF Aktiengellschaft, priority 1991, dated 2006).

Tests used:
[1] = system: mutant wheat selections FS1-FS4 and Fidel; assay type: in vivo; conditions: postemergence
Excerpt: This greenhouse test examines the level and spectrum of herbicide resistance of the mutant selections at the whole plant level. […] These lines are bulked according to their parental lines: FS1, FS2, FS3 and FS4. Fidel (wild-type) is used is a control and for performance comparison purposes. Five seeds from each of these lines (including Fidel) are planted per pot in six inch Azalea pots and are later thinned to three plants per pot. Three replicates are used per treatment (chemical and rate) for each line, and six replicates per wheat line are used as untreated controls. Plants are sprayed postemergence, 10 days after planting, with the following herbicides and rates: […]

[2] = system: AHAS (acetohydroxyacid synthase); assay: AHAS enzyme assay, Initial Assay (M3 Plants); assay type: biochemical, wheat
Description: Herbicide Application: M3 plants from the four initial mutant plants (FS1, FS2, FS3 and FS4), are tested for metabolic AHAS (acetohydroxyacid synthase) activity. […] When these plants are three weeks old, two plants of each mutant selection, FS1-FS4, receive a second application of PURSUIT™ at 62.5 g/ha while two of each selection are left unsprayed. Sprayed and unsprayed susceptible Fidel plants are also included in this experiment. […] Compound 9 is 2-acetamido-2,3-dimethyl-N-(p-tolylsulfonyl)butyramide, and is described in U.S. Pat. No. 4,883,914.
Enzyme Extraction: For the extraction of AHAS, 10 grams of tissue are powdered in liquid nitrogen and then homogenized in 100 mM potassium phosphate buffer (pH 7.5) containing 10 mM pyruvate, 5 mM MgCl2, 5 uM EDTA, 100 uM FAD, 1 mM valine, 1 mM leucine, 10% glycerol, and 10 mM cysteine. The homogenate is filtered through a nylon cloth (53 uM mesh) and centrifuged at 25,000 g for 20 minutes. […]
AHAS Assay: AHAS activity is measured by estimation of the product, acetolactate, after conversion by decarboxylation in the presence of acid to acetoin. […] The acetoin formed is determined by incubating with creatine (0.17%) and 1-napthol (1.7% in 4N NaOH) by the method of Westerfield (Westerfield, W. W., J. Biol. Chem., 161, 495-502 (1945)). […] The absorption of color complex is measured at 520 nm. […]

[3] = system: M3 wheat plants from selections FS1-FS4 and Fidel; assay: M3 Plant Screen: In vivo (seed soak/preemergence application screen)
Description: M3 plants from the four initial plant selections (labelled FS1, FS2, FS3 and FS4) are screened for PURSUIT™ resistance. Five M3 seeds from each mature infloresence of these initial M2 mutants are disinfested in 70% EtOH for 30 seconds followed by disinfestation in 50% solution containing 2.625% sodium hypochlorite (as described above) for 20 minutes under vacuum with gentle agitation provided by a stir plate. The seeds are rinsed two times in sterile distilled water.
Each set of five seeds is then placed into 10 ml of a 1500 uM solution of PURSUIT™ in a sterile 60×15 mm plastic petri dish and soaked for three days. The seeds are rinsed with water, dried with paper towels and planted approximately ½″ deep in 6×8 inch peat flats containing moist, sterile Metro Mix 350™. These flats are sprayed preemergence with 300 g/ha of PURSUIT™. Controls include M3 seeds from each resistant selection which are disinfested as previously described, soaked in sterile distilled water for three days and then planted. In addition, unselected susceptible Fidel wheat is disinfested as described above and one-half of the seeds treated with PURSUIT™ (seed soak and spray procedure) and the other half are soaked in water alone. The herbicide is applied with a laboratory belt sprayer at a rate of 950 L/ha with a belt speed of 12.5 sec/rev using sprayer nozzle #40015E.
Four weeks after receiving the initial seed soak, the M3 wheat plants are rated according to whether the plants are herbicide resistant, herbicide damaged or dead. The herbicide resistant plants are transplanted individually to 7.5 inch Azalea pots with Metro Mix 350™. A fertilizer, Osmocote™ (Sierra Company, Milpita, Calif.) is added as a top dressing one week after the plants are transplanted. In addition the plants are fertilized regularly with Peter's 20-20-20™ (Grace Company, Cambridge, Mass.). Individual plants are rated against Fidel untreated controls.

[4] = Control 2 = Susceptible wheat seed (Fidel) soaked in herbicide solution, three weeks
[5] = FS1 M3, 1500 uM seed soak + 300 g/ha preemergence, three weeks after herbicide treatment
[6] = FS2 M3, 1500 uM seed soak + 300 g/ha preemergence, three weeks after herbicide treatment
[7] = FS3 M3, 1500 uM seed soak + 300 g/ha preemergence, three weeks after herbicide treatment
[8] = FS4 M3, 1500 uM seed soak + 300 g/ha preemergence, three weeks after herbicide treatment

For `CCc1cnc(C2=NC(C)(C(C)C)C(=O)N2)c(C(=O)O)c1` (stereo not shown) [PURSUIT, 5-ethyl-2-(4-isopropyl-4-methyl-5-oxo-2-imidazolin-2-yl)-nicotinic acid], the “rate to which the mutant wheat is resistant” value ([1]; mutant wheat FS1-FS4, plant growth four weeks after treatment) was “more than 320 g/ha”, the “increased tolerance of mutant wheat” value ([1]; mutant wheat FS1-FS4 versus Fidel, four weeks after treatment) was about 8 fold and the “resistance of AHAS to inhibition” value ([2]; FS1-FS4 M3 plants sprayed with 62.5 g/ha PURSUIT, compared to sprayed wild type) was “dramatic increase in the AHAS resistance”. The “resistance of AHAS to inhibition” value ([2]; resistant wheat lines, unsprayed M3 plants) was “weak resistance”, the “No. of Plants (number of plants raised/number of seeds planted)” value ([3]; Control 2 = Susceptible wheat seed (Fidel) soaked in herbicide solution) was 13/15 and the “Ave. Shoot Height” value [3, 4] was 21.2 cm. For the same compound, the “Range Shoot Heights” value [3, 4] was 8-30 cm, the “No. of Plants (number of plants raised/number of seeds planted)” value ([3]; FS1 M3, 1500 uM seed soak + 300 g/ha preemergence) was 48/80 and the “Ave. Shoot Height” value [3, 5] was 9.1 cm. For the same compound, the “Range Shoot Heights” value [3, 5] was 2-15 cm, the germination frequency ([3]; FS1 M3 seed, 1500 uM seed soak + 300 g/ha preemergence) was 60% and the “No. of Plants (number of plants raised/number of seeds planted)” value ([3]; FS2 M3, 1500 uM seed soak + 300 g/ha preemergence) was 36/80. For the same compound, the “Ave. Shoot Height” value [3, 6] was 11.7 cm, the “Range Shoot Heights” value [3, 6] was 5-18 cm and the germination frequency ([3]; FS2 M3 seed, 1500 uM seed soak + 300 g/ha preemergence) was 47.5%. The “No. of Plants (number of plants raised/number of seeds planted)” value ([3]; FS3 M3, 1500 uM seed soak + 300 g/ha preemergence) was 35/85, the “Ave. Shoot Height” value [3, 7] was 8.0 cm and the “Range Shoot Heights” value [3, 7] was 1-14.5 cm. The germination frequency ([3]; FS3 M3 seed, 1500 uM seed soak + 300 g/ha preemergence) was 41.2%, the “No. of Plants (number of plants raised/number of seeds planted)” value ([3]; FS4 M3, 1500 uM seed soak + 300 g/ha preemergence) was 44/85 and the “Ave. Shoot Height” value [3, 8] was 21.1 cm. For the same compound, the “Range Shoot Heights” value [3, 8] was 5-28 cm, the germination frequency ([3]; FS4 M3 seed, 1500 uM seed soak + 300 g/ha preemergence) was 55% and the survival ([3]; non-mutagenized, non-selected Fidel seed, 1500 uM seed soak and 300 g/ha preemergent) was “does not survive”. The herbicide symptoms ([3]; some M3 seedlings, progeny of FS4, 1500 uM seed soak + 300 g/ha preemergence) was “stunting, twisting and/or chlorotic striping”.
